Data on eleven compounds can be found in patent US20260209249A1, “NOVEL TRICYCLIC COMPOUND AS KRAS G12D INHIBITOR, AND USE THEREOF” (SK Biopharmaceuticals Co., priority 2022, published 2026).

The target of assay [1] is T1, GppNHp-KRAS G12D mutant protein (Homo sapiens, UniProt P01116, G12D).
T1 construct: purchased Daegu Gyeongbuk Medical Innovation Foundation (DGMIF), made to order
The assay is described as follows: Differential scanning fluorimetry (DSF) binding affinity to GppNHp-KRAS G12D mutant protein. The note with it: DSF thermal shift, 10 μM compound, 4 μg KRAS protein, 50 mM HEPES (pH 7.5). The method in brief:
(§1)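 Thermal shift ΔTm was measured at 10 μM compound over a 25–99 °C ramp (0.05 °C/s), read at 580 nm ex/623 nm em with SYPRO Orange (2×). The protein (4 μg) was preincubated with compound for 30 min at room temperature, in 50 mM HEPES pH 7.5 for GppNHp-KRAS G12D or in kit buffer for GDP-KRAS G12D.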
For orientation: In DSF a fluorescence change marks the thermal transition of the protein.

The test system of assay [2] is ERK phosphorylation (pERK) induced by KRAS G12D mutation. Briefly: Inhibitory activity against ERK phosphorylation (pERK) induced by KRAS G12D mutation, immunofluorescence assay in AsPC-1 cells. It counts as cell-based. Particulars: Homo sapiens, ASPC1, 3 h drug treatment, pERK (Thr202/Tyr204) signal normalized to DAPI. The method in brief:
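AsPC-1 cells attached 16 h, then treated 3 h with 3-fold dilutions from 10 μM top. Fixed, permeabilized, immunostained for pERK (Thr202/Tyr204) with Alexa 488 secondary; high-content imaging, signal normalized to DAPI and to DMSO, IC50 from four-parameter fit.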

Assay [3] concerns KRAS G12D mutant pancreatic cancer cell line AsPC-1. Briefly: Cell viability assay using KRAS G12D mutant cells (AsPC-1, 3D culture, celltiter-glo 3D). Particulars: Homo sapiens, ASPC1, 5th day after compound treatment. It counts as cell-based. The protocol:
Test Example 3: Cell Viability Assay Using KRAS G12D Mutant Cells
The KRAS G12D mutant pancreatic cancer cell line AsPC-1 was obtained from the Korean Cell Line Bank (KCLB) and maintained in 100-mm dishes or T75 (75 cm^2) flasks using RPM11640+10% fetal bovine serum (FBS)+1% Penicillin-Streptomycin medium. The cells were cultured at 37° C. with 5% CO2. The number of viable cells was counted using Countess (Invitrogen).
When AsPC-1 cells reached 85-100% confluence in the flask, the cells were harvested using 1× trypsin/EDTA solution, and seeded into a 96-well plate for 3D culture at 1000 cells/100 μL/well. The next day, the compounds were diluted ⅕ with DMSO from 10 μM or 50 μM to 0.0001 μM or 0.0006 μM and treated 1:1 (v/v) in the plate where the cells were seeded.
Cell culture was terminated on the 5th day after compound treatment, and cell viability at each concentration was measured using the celltiter-glo 3D cell viability assay kit.
Cell viability assays were normalized to 100% for the DMSO-treated group and expressed as a percentage of the number of viable cells when treated with the compound.
Cell viability %=(average RLU of group treated with test substance−average RLU of untreated group)/(average RLU of group treated with DMSO−average RLU of untreated group)×100
The data were modeled using GraphPad Prism 9 (GraphPad Software) by applying a nonlinear regression curve fit with a four-parameter sigmoidal dose-response curve to determine cell viability as a function of compound concentration. The 50% inhibitory concentration (IC50) corresponds to the concentration at which the curve intersects the midpoint of cell viability. The results of the inhibitory effect of the compounds according to one embodiment of the present application on the viability of KRAS G12D mutant cells are presented in Table 4.
Background: In ATP-based viability assays light output follows the ATP content of the culture.

Assay [4] addresses T2, GDP-KRAS G12D mutant protein (Homo sapiens, UniProt P01116, G12D).
T2 construct: purchased Daegu Gyeongbuk Medical Innovation Foundation (DGMIF), made to order
The assay is described as follows: Differential scanning fluorimetry (DSF) binding affinity to GDP-KRAS G12D mutant protein. The note with it: DSF thermal shift, 10 μM compound, 4 μg KRAS protein. The method in brief: as §1

In general, IC50 refers to the concentration needed to halve the response being measured. The low end stands for inhibition by little substance, the high end for a need for much substance.

On to `C#Cc1c(F)ccc2cc(O)cc(-c3cc4nc(OCC5(CN6CC[C@@H](F)C6)CC5)nc(N5[C@@H]6CC[C@H]5CNC6)c4n4ccnc34)c12` [Example 16, 4-(1-((1R,5S)-3,8-diazabicyclo[3.2.1]octan-8-yl)-3-((1-(((R)-3-fluoropyrrolidin-1-yl)methyl)cyclopropyl)methoxy)imidazo[1′,2′:1,6]pyrido[3,2-d]pyrimidin-6-yl)-5-ethynyl-6-fluoronaphthalen-2-ol], for which the “GppNHp-KRAS G12D (ΔTmD, ° C.)” value in assay [1] is 4.27 °C. Moreover, the IC50 stood at 176 nM in assay [2] and 94 nM in assay [3]. The “GDP-KRAS G12D (ΔTmD, ° C.)” value in assay [4] was 9.01 °C.
Consider `C#Cc1c(F)ccc2cc(O)cc(-c3cc4nc(OCC5(CN6CCC7(CC6)CC7(F)F)CC5)nc(N5C[C@H]6CC[C@@H](C5)N6)c4c4cn(C)nc34)c12` [Example 73, 4-(9-((1R,5S)-3,8-diazabicyclo[3.2.1]octan-3-yl)-7-((1-((1,1-difluoro-6-azaspiro[2.5]octan-6-yl)methyl)cyclopropyl)methoxy)-2-methyl-2H-pyrazolo[4,3-f]quinazolin-4-yl)-5-ethynyl-6-fluoronaphthalen-2-ol], for which, in assay [1], the “GppNHp-KRAS G12D (ΔTmD, ° C.)” value is 5.60 °C. Further, the IC50 in assay [2] worked out at 49 nM; in assay [3], 37 nM. For the same compound, the “GDP-KRAS G12D (ΔTmD, ° C.)” value in assay [4] was determined as 11.97 °C.
As for `C#Cc1c(F)ccc2cc(O)cc(-c3cc4nc(OCC5(CN6CCO[C@H](C)C6)CC5)nc(N5C[C@H]6CC[C@@H](C5)N6)c4n4ccnc34)c12` [Example 11, 4-(1-((1R,5S)-3,8-diazabicyclo[3.2.1]octan-3-yl)-3-((1-(((R)-2-methylmorpholino)methyl)cyclopropyl)methoxy)imidazo[1′,2′:1,6]pyrido[3,2-d]pyrimidin-6-yl)-5-ethynyl-6-fluoronaphthalen-2-ol], the “GppNHp-KRAS G12D (ΔTmD, ° C.)” value in assay [1] came out at 2.49 °C. Also, the results for the IC50 in assay [2] and in assay [3] were 174 nM and 140 nM, respectively. Besides, in assay [4], the “GDP-KRAS G12D (ΔTmD, ° C.)” value is 9.74 °C.
The corresponding values for `C#Cc1c(F)ccc2cc(O)cc(-c3c(F)c4nc(OC[C@@]56CCCN5C[C@H](F)C6)nc(N5CC6CCC5CN6)c4c4cn(C)nc34)c12` (stereo partly drawn) [Example 88, 4-(9-(2,5-diazabicyclo[2.2.2]octan-2-yl)-5-fluoro-7-(((2R,7aS)-2-fluorotetrahydro-1H-pyrrolizin-7a(5H)-yl)methoxy)-2-methyl-2H-pyrazolo[4,3-n]quinazolin-4-yl)-5-ethynyl-6-fluoronaphthalen-2-ol] are 5.31 °C, 484 nM, 734 nM and 6.35 °C.
For `Cn1cc2c(n1)c(-c1cc(O)cc3ccc(F)c(F)c13)c(F)c1nc(OC[C@@]34CCCN3C[C@H](F)C4)nc(N3C[C@H]4CC[C@@H](C3)N4)c12` [Example 95, 4-(9-((1R,5S)-3,8-diazabicyclo[3.2.1]octan-3-yl)-5-fluoro-7-(((2R,7aS)-2-fluorotetrahydro-1H-pyrrolizin-7a(5H)-yl)methoxy)-2-methyl-2H-pyrazolo[4,3-f]quinazolin-4-yl)-5,6-difluoronaphthalen-2-ol], the “GppNHp-KRAS G12D (ΔTmD, ° C.)” value in assay [1] amounted to 7.54 °C. Moreover, the IC50 in assay [2] was 82 nM; in assay [3] it was 263 nM. In addition, the “GDP-KRAS G12D (ΔTmD, ° C.)” value in assay [4] was 11.83 °C.
Turning to `CCc1c(F)ccc2cc(O)cc(-c3c(F)c4nc(OC[C@@]56CCCN5C/C(=C\F)C6)nc(N5C[C@H]6CC[C@@H](C5)N6)c4c4cn(C)nc34)c12` [Example 85, 4-(9-((1R,5S)-3,8-diazabicyclo[3.2.1]octan-3-yl)-5-fluoro-7-(((S,Z)-2-(fluoromethylene)tetrahydro-1H-pyrrolizin-7a(5H)-yl)methoxy)-2-methyl-2H-pyrazolo[4,3-f]quinazolin-4-yl)-5-ethyl-6-fluoronaphthalen-2-ol], the “GppNHp-KRAS G12D (ΔTmD, ° C.)” value in assay [1] was determined as 12.43 °C. For the same compound, the IC50 worked out at 7 nM in assay [2] and 11 nM in assay [3]. For the same compound, the “GDP-KRAS G12D (ΔTmD, ° C.)” value in assay [4] is 15.24 °C.
The corresponding values for `C#Cc1c(F)ccc2cc(O)cc(-c3cc4nc(OC[C@@]56CCCN5C[C@H](F)C6)nc(N5C[C@H]6CC[C@@H](C5)N6)c4c4cc(C)oc34)c12` [Example 42, 4-(1-((1R,5S)-3,8-diazabicyclo[3.2.1]octan-3-yl)-3-(((2R,7aS)-2-fluorotetrahydro-1H-pyrrolizin-7a(5H)-yl)methoxy)-8-methylfuro[3,2-f]quinazolin-6-yl)-5-ethynyl-6-fluoronaphthalen-2-ol] are 5.75 °C, 64 nM, 105 nM and 10.96 °C.
As to `C#Cc1c(F)ccc2cc(O)cc(-c3cc4nc(OC[C@]56CC(=C)CN5C[C@@H](F)C6)nc(N5CC6CCC(C5)N6)c4n4ccnc34)c12` [Example 39, 4-(1-((1R,5S)-3,8-diazabicyclo[3.2.1]octan-8-yl)-3-(((2S,7aR)-2-fluoro-6-methylenetetrahydro-1H-pyrrolizin-7a(51H)-yl)methoxy)imidazo[1′,2′:1,6]pyrido[3,2-d]pyrimidin-6-yl)-5-ethynyl-6-fluoronaphthalen-2-ol], the “GppNHp-KRAS G12D (ΔTmD, ° C.)” value in assay [1] came out at 5.61 °C. Moreover, the IC50 was determined as 76 nM in assay [2] and 91 nM in assay [3]. In addition, the “GDP-KRAS G12D (ΔTmD, ° C.)” value in assay [4] was found to be 8.87 °C.
The corresponding values for `C#Cc1c(F)ccc2cc(O)cc(-c3c(F)c4nc(OC[C@@]56CCCN5C[C@H](F)C6)nc(N5CC6CCC(C5)N6)c4c4cc(C)oc34)c12` [Example 44, 4-(1-((1R,5S)-3,8-diazabicyclo[3.2.1]octan-3-yl)-5-fluoro-3-(((2R,7aS)-2-fluorotetrahydro-1H-pyrrolizin-7a(5H)-yl)methoxy)-8-methylfuro[3,2-n]quinazolin-6-yl)-5-ethynyl-6-fluoronaphthalen-2-ol] are 9.89 °C, 12 nM, 7 nM and 14.33 °C.
The corresponding values for `C#Cc1c(F)ccc2cc(O)cc(-c3cc4nc(OC[C@@]56CCCN5C/C(=C\F)C6)nc(N5[C@@H]6CC[C@H]5CNC6)c4n4ccnc34)c12` [Example 23, 4-(1-((1R,5S)-3,8-diazabicyclo[3.2.1]octan-8-yl)-3-(((S,Z)-2-(fluoromethylene)tetrahydro-1H-pyrrolizin-7a(5H)-yl)methoxy)imidazo[1′,2′:1,6]pyrido[3,2-d]pyrimidin-6-yl)-5-ethynyl-6-fluoronaphthalen-2-ol] are 6.94 °C, 25 nM, 24 nM and 9.90 °C.
The corresponding values for `C#Cc1c(F)ccc2cc(O)cc(-c3c(F)c4nc(OCC5(CN6CCC7(CC6)CC7(F)F)CC5)nc(N5C[C@H]6CC[C@@H](C5)N6)c4c4cn(C)nc34)c12` [Example 87, 4-(9-((1R,5S)-3,8-diazabicyclo[3.2.1]octan-3-yl)-7-((1-((1,1-difluoro-6-azaspiro[2.5]octan-6-yl)methyl)cyclopropyl)methoxy)-5-fluoro-2-methyl-2H-pyrazolo[4,3-f]quinazolin-4-yl)-5-ethynyl-6-fluoronaphthalen-2-ol] are 8.86 °C, 4 nM, 11 nM and 14.94 °C.
